The source of these data is ChEMBL document CHEMBL2074559, “Inhibition of multidrug resistance-associated protein (MRP) activity by rifampicin in human multidrug-resistant lung tumor cells” (Cancer Lett, 1999).

Data set [1] concerns the target T1, Multidrug resistance-associated protein 1 (Homo sapiens, UniProt P33527). Put plainly: TP_TRANSPORTER: increase in Calcein intracellular accumulation (Calcein: 0.5 uM, Rifampicin: 200 uM) in GLC4/ADR cells. In kind it is functional, cell-based. As to conditions: glc-4/adr.
Data set [2] deals with T1, Multidrug resistance-associated protein 1. Put plainly: TP_TRANSPORTER: increase in Calcein intracellular accumulation (Calcein: 0.5 uM, Rifamycin SV: 200 uM) in GLC4/ADR cells. It is filed as functional, cell-based. As to conditions: glc-4/adr.

Each structure is given as a SMILES string.

T1 sequence (P33527 whole entry): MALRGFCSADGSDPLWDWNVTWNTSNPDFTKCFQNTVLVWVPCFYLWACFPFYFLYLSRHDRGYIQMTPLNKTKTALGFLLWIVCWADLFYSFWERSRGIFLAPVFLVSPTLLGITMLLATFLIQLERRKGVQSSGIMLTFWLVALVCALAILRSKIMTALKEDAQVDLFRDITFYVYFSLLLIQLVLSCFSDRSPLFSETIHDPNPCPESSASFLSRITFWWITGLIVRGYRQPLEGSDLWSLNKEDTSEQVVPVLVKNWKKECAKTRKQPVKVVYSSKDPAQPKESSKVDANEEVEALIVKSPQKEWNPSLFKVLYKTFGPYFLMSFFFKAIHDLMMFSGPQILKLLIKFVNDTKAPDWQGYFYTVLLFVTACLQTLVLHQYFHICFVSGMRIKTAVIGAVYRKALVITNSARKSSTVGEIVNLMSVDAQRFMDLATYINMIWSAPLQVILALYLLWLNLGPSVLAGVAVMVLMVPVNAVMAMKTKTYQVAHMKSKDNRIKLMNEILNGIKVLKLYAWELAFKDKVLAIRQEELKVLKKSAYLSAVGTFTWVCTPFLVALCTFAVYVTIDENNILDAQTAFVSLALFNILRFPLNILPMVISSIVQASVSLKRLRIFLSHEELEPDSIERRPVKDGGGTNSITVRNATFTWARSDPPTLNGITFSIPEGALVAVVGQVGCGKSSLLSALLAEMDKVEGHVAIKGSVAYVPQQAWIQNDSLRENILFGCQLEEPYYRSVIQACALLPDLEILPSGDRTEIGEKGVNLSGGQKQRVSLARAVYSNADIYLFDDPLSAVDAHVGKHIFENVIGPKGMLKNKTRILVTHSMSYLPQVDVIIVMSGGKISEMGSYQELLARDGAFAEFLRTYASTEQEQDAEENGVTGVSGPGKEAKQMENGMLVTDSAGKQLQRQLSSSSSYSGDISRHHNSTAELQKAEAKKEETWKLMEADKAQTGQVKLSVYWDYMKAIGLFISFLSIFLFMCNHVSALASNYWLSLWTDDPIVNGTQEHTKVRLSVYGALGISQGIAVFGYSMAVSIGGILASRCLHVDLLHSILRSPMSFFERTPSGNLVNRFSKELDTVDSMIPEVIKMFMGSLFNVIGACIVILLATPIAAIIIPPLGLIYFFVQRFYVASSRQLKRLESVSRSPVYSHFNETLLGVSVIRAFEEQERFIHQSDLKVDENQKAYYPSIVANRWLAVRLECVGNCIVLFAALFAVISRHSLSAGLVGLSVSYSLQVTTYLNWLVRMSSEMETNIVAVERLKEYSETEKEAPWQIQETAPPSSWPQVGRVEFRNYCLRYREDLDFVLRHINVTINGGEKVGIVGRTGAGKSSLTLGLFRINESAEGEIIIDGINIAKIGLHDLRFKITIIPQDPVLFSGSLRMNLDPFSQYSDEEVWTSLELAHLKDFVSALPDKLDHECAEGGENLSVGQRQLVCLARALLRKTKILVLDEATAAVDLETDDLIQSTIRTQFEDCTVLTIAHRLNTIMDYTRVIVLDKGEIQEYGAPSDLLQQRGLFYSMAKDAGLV

`CO[C@H]1/C=C/O[C@@]2(C)Oc3c(C)c(O)c4c(O)c(c(/C=N/N5CCN(C)CC5)c(O)c4c3C2=O)NC(=O)/C(C)=C\C=C\[C@H](C)[C@H](O)[C@@H](C)[C@@H](O)[C@@H](C)[C@H](OC(C)=O)[C@@H]1C` [RIFAMPIN]: the Activity in data set [1] is given as 110%.

With `CO[C@H]1/C=C/O[C@@]2(C)Oc3c(C)c(O)c4c(O)c(cc(O)c4c3C2=O)NC(=O)/C(C)=C\C=C\[C@H](C)[C@H](O)[C@@H](C)[C@@H](O)[C@@H](C)[C@H](OC(C)=O)[C@@H]1C` [RIFAMYCIN], the Activity in data set [2] is 110%.
